Data taken from US10435398B2, “Oxazole orexin receptor antagonists” (MERCK SHARP & DOHME CORP., priority 2014, dated 2019).
Values belong to the molecule of their own block, whether it stands above or below them.

Columns and labels:
human orexin-2 receptor = human orexin-2 receptor (Homo sapiens (Human), UniProt O43614); assay: FLIPR Ca2+ Flux Assay, hOX2R; type: cell-based; conditions: CHO cells expressing human orexin-2 receptor; agonist 70 pM Ala-6,12 human orexin-A
Experimental: (§1) The utility of the compounds in accordance with the present invention as orexin receptor OX1R and/or OX2R antagonists may be readily determined without undue experimentation by methodology well known in the art, including the “FLIPR Ca^2+ Flux Assay” (Okumura et al., Biochem. Biophys. Res. Comm. 280:976-981, 2001). In a typical experiment the OX1 and OX2 receptor antagonistic activity of the compounds of the present invention was determined in accordance with the following experimental method. For intracellular calcium measurements, Chinese hamster ovary (CHO) cells expressing the rat or human orexin-1 receptor or the human orexin-2 receptor, are grown in Iscove's modified DMEM containing 2 mM L-glutamine, […], 1% hypoxanthine-thymidine supplement, 100 U/ml penicillin, 100 μg/ml streptomycin and 10% heat-inactivated fetal calf serum (FCS). The cells are seeded at 20,000 cells/well into Becton-Dickinson black 384-well clear bottom sterile plates coated with poly-D-lysine. All reagents were from GIBCO-Invitrogen Corp. The seeded plates are incubated overnight at 37° C. and 5% CO2. Ala-6,12 human orexin-A as the agonist is prepared as a 1 mM stock solution in 1% bovine serum albumin (BSA) and diluted in assay buffer (HBSS containing 20 mM HEPES, 0.1% BSA and 2.5 mM probenecid, pH7.4) for use in the assay at a final concentration of 70 pM. Test compounds are prepared as 10 mM stock solution in DMSO, then diluted in 384-well plates, first in DMSO, then assay buffer. On the day of the assay, cells are washed 3 times with 100 μl assay buffer and then incubated for 60 min (37° C., 5% CO2) in 60 μl assay buffer containing 1 μM Fluo-4AM ester, 0.02% pluronic acid, and 1% BSA. The dye loading solution is then aspirated and cells are washed 3 times with 100 μl assay buffer. 30 μl of that same buffer is left in each well. Within the Fluorescent Imaging Plate Reader (FLIPR, Molecular Devices), test compounds are added to the plate in a volume of 25 μl, incubated for 5 min and finally 25 μl of agonist is added. Fluorescence is measured for each well at 1 second intervals for 5 minutes and the height of each fluorescence peak is compared to the height of the fluorescence peak induced by 70 pM Ala-6,12 orexin-A with buffer in place of antagonist. For each antagonist, IC50 value (the concentration of compound needed to inhibit 50% of the agonist response) is determined. Alternatively, compound potency can be assessed by a radioligand binding assay (described in Bergman et. al. Bioorg. Med. Chem. Lett. 2008, 18, 1425-1430) in which the inhibition constant (Ki) is determined in membranes prepared from CHO cells expressing either the OX1 or OX2 receptor. The intrinsic orexin receptor antagonist activity of a compound which may be used in the present invention may be determined by these assays.

human orexin-1 receptor = human orexin-1 receptor (Homo sapiens (Human), UniProt O43613); assay: FLIPR Ca2+ Flux Assay, hOX1R; type: cell-based; conditions: CHO cells expressing human orexin-1 receptor; agonist 70 pM Ala-6,12 human orexin-A
Chain of human orexin-1 receptor (O43613 whole entry): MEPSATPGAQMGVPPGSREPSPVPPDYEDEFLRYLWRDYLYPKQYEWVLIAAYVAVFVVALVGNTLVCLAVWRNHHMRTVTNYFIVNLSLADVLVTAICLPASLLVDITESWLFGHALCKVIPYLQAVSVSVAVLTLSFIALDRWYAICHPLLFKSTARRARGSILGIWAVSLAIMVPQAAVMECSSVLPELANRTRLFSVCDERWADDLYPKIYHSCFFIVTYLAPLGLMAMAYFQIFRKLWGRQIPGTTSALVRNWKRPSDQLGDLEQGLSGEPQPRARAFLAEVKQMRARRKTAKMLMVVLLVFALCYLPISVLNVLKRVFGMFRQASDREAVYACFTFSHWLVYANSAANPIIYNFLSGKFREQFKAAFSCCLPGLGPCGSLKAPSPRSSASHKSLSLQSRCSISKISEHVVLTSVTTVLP
Experimental: as §1

Chain of human orexin-2 receptor (O43614 whole entry): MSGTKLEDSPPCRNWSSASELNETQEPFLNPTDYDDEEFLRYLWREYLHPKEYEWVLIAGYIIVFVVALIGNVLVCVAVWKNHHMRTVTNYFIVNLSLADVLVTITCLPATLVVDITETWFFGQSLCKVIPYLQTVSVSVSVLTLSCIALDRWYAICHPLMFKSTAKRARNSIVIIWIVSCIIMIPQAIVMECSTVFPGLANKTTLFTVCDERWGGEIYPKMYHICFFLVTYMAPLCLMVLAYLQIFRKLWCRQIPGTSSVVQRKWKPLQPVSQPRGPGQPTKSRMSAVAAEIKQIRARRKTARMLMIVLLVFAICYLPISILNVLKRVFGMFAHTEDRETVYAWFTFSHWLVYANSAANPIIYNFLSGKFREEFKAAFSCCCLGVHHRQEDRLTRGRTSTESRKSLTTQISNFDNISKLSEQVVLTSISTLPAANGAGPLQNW

SMILES: CCN(CCc1nc(C(C)(C)O)c(C)o1)C(=O)c1ccccc1-c1ccccc1 [Example 1, N-Ethyl-N-(2-(4-(2-hydroxypropan-2-yl)-5-methyloxazol-2-yl)ethyl)-[1,1′-biphenyl]-2-carboxamide]
- IC50 (human orexin-2 receptor): 0.029 µM
- IC50 (human orexin-1 receptor): 1.83 µM

SMILES: CCN(CCc1nc(C(C)(C)O)c(C)o1)C(=O)c1cccc(C)c1-n1nccn1 [Example 2, N-Ethyl-N-{2-[4-(1-hydroxy-1-methylethyl)-5-methyl-1,3-oxazol-2-yl]ethyl}-3-methyl-2-(2H-1,2,3-triazol-2-yl)benzamide]
- IC50 (human orexin-2 receptor): 0.054 µM
- IC50 (human orexin-1 receptor): > 10 µM

SMILES: CCN(CCc1nc(C(C)(C)O)c(C)o1)C(=O)c1cccc(F)c1-n1nccn1 [Example 3, N-Ethyl-3-fluoro-N-{2-[4-(1-hydroxy-1-methylethyl)-5-methyl-1,3-oxazol-2-yl]ethyl}-2-(2H-1,2,3-triazol-2-yl)benzamide]
- IC50 (human orexin-2 receptor): 0.044 µM
- IC50 (human orexin-1 receptor): > 10 µM

SMILES: CCN(CCc1nc(C(C)(C)O)c(C)o1)C(=O)c1ccc(F)cc1-n1nccn1 [Example 4, N-Ethyl-4-fluoro-N-{2-[4-(1-hydroxy-1-methylethyl)-5-methyl-1,3-oxazol-2-yl]ethyl}-2-(2H-1,2,3-triazol-2-yl)benzamide]
- IC50 (human orexin-2 receptor): 0.048 µM
- IC50 (human orexin-1 receptor): > 10 µM

SMILES: CCN(CCc1nc(C(C)(C)O)c(C)o1)C(=O)c1ccccc1C1CC1 [Example 5, 2-Cyclopropyl-N-ethyl-N-{2-[4-(1-hydroxy-1-methylethyl)-5-methyl-1,3-oxazol-2-yl]ethyl}benzamide]
- IC50 (human orexin-2 receptor): 0.387 µM
- IC50 (human orexin-1 receptor): > 10 µM

SMILES: CCN(CCc1nc(C(C)(C)O)c(C)o1)C(=O)c1cccnc1-n1cccn1 [Example 6, N-Ethyl-N-{2-[4-(1-hydroxy-1-methylethyl)-5-methyl-1,3-oxazol-2-yl]ethyl}-2-(1H-pyrazol-1-yl)pyridine-3-carboxamide]
- IC50 (human orexin-2 receptor): 0.101 µM
- IC50 (human orexin-1 receptor): > 10 µM

SMILES: CCN(CCc1nc(C(C)(C)O)c(C)o1)C(=O)c1cc(F)ccc1-n1nccn1 [Example 7, N-Ethyl-5-fluoro-N-{2-[4-(1-hydroxy-1-methylethyl)-5-methyl-1,3-oxazol-2-yl]ethyl}-2-(2H-1,2,3-triazol-2-yl)benzamide]
- IC50 (human orexin-2 receptor): 0.062 µM
- IC50 (human orexin-1 receptor): > 10 µM

SMILES: CCN(CCc1nc(C(C)(C)O)c(C)o1)C(=O)c1ccc(OC)cc1-n1nccn1 [Example 8, N-Ethyl-N-{2-[4-(1-hydroxy-1-methylethyl)-5-methyl-1,3-oxazol-2-yl]ethyl}-4-methoxy-2-(2H-1,2,3-triazol-2-yl)benzamide]
- IC50 (human orexin-2 receptor): 0.082 µM
- IC50 (human orexin-1 receptor): > 10 µM

SMILES: CCN(CCc1nc(C(C)(C)O)c(C)o1)C(=O)c1ccccc1-n1ncnn1 [Example 9, N-ethyl-N-{2-[4-(1-hydroxy-1-methylethyl)-5-methyl-1,3-oxazol-2-yl]ethyl}-2-(2H-tetrazol-2-yl)benzamide]
- IC50 (human orexin-2 receptor): 0.491 µM
- IC50 (human orexin-1 receptor): > 10 µM

SMILES: CCN(CCc1nc(C(C)(C)O)c(C)o1)C(=O)c1cccnc1OCC(F)F [Example 10, 2-(2,2-difluoroethoxy)-N-ethyl-N-{2-[4-(1-hydroxy-1-methylethyl)-5-methyl-1,3-oxazol-2-yl]ethyl}pyridine-3-carboxamide]
- IC50 (human orexin-2 receptor): 0.224 µM
- IC50 (human orexin-1 receptor): > 10 µM

SMILES: CCN(CCc1nc(C(C)(C)O)c(C)o1)C(=O)c1ccccc1C1(C#N)CC1 [Example 10b, 2-(1-cyanocyclopropyl)-N-ethyl-N-{2-[4-(1-hydroxy-1-methylethyl)-5-methyl-1,3-oxazol-2-yl]ethyl}benzamide]
- IC50 (human orexin-2 receptor): 0.026 µM
- IC50 (human orexin-1 receptor): 1.76 µM

SMILES: CCN(CCc1nc(C(C)(C)O)c(C)o1)C(=O)c1ccccc1-c1nc(C)no1 [Example 10c, N-ethyl-N-{2-[4-(1-hydroxy-1-methylethyl)-5-methyl-1,3-oxazol-2-yl]ethyl}-2-(3-methyl-1,2,4-oxadiazol-5-yl)benzamide]
- IC50 (human orexin-2 receptor): 0.212 µM
- IC50 (human orexin-1 receptor): > 10 µM

SMILES: CCN(CCc1nc(C(C)(C)O)c(C)o1)C(=O)c1sccc1-n1nccn1 [Example 10d, N-ethyl-N-{2-[4-(1-hydroxy-1-methylethyl)-5-methyl-1,3-oxazol-2-yl]ethyl}-3-(2H-1,2,3-triazol-2-yl)thiophene-2-carboxamide]
- IC50 (human orexin-2 receptor): 0.435 µM
- IC50 (human orexin-1 receptor): > 10 µM

SMILES: CCN(CCc1nc(C(C)(C)O)c(C)o1)C(=O)c1ccccc1-n1nccn1 [Example 11, N-Ethyl-N-{2-[4-(1-hydroxy-1-methylethyl)-5-methyl-1,3-oxazol-2-yl]ethyl}-2-(2H-1,2,3-triazol-2-yl)benzamide]
- IC50 (human orexin-2 receptor): 0.027 µM
- IC50 (human orexin-1 receptor): 2.59 µM

SMILES: CCN(CCc1nc(C(C)(C)O)c(C)o1)C(=O)c1ccsc1-n1nccn1 [Example 12, N-Ethyl-N-{2-[4-(1-hydroxy-1-methylethyl)-5-methyl-1,3-oxazol-2-yl]ethyl}-2-(2H-1,2,3-triazol-2-yl)thiophene-3-carboxamide]
- IC50 (human orexin-2 receptor): 0.063 µM
- IC50 (human orexin-1 receptor): > 10 µM

SMILES: CCN(CCc1nc(C(C)(C)O)c(C)o1)C(=O)c1cccnc1OCC(F)(F)F [Example 13, N-Ethyl-N-{2-[4-(1-hydroxy-1-methylethyl)-5-methyl-1,3-oxazol-2-yl]ethyl}-2-(2,2,2-trifluoroethoxy)pyridine-3-carboxamide]
- IC50 (human orexin-2 receptor): 0.098 µM
- IC50 (human orexin-1 receptor): > 10 µM

SMILES: CCN(CCc1nc(C(C)(C)O)c(C)o1)C(=O)c1ccccc1CC(F)(F)F [Example 14, N-Ethyl-N-{2-[4-(1-hydroxy-1-methylethyl)-5-methyl-1,3-oxazol-2-yl]ethyl}-2-(2,2,2-trifluoroethyl)benzamide]
- IC50 (human orexin-2 receptor): 0.211 µM
- IC50 (human orexin-1 receptor): > 10 µM

SMILES: CCOc1ccccc1C(=O)N(CC)CCc1nc(C(C)(C)O)c(C)o1 [Example 15, 2-Ethoxy-N-ethyl-N-{2-[4-(1-hydroxy-1-methylethyl)-5-methyl-1,3-oxazol-2-yl]ethyl}benzamide]
- IC50 (human orexin-2 receptor): 0.223 µM
- IC50 (human orexin-1 receptor): > 10 µM

SMILES: CCN(CCc1nc(C(C)(C)O)c(C)o1)C(=O)c1ccccc1C(=O)OC [Example 16, Methyl 2-(ethyl{2-[4-(1-hydroxy-1-methylethyl)-5-methyl-1,3-oxazol-2-yl]ethyl}carbamoyl)benzoate]
- IC50 (human orexin-2 receptor): 0.63 µM
- IC50 (human orexin-1 receptor): > 10 µM

SMILES: CCN(CCc1nc(C(C)(C)O)c(C)o1)C(=O)c1ccccc1-n1cccn1 [Example 17, N-Ethyl-N-{2-[4-(1-hydroxy-1-methylethyl)-5-methyl-1,3-oxazol-2-yl]ethyl}-2-(1H-pyrazol-1-yl)benzamide]
- IC50 (human orexin-2 receptor): 0.292 µM
- IC50 (human orexin-1 receptor): > 10 µM

SMILES: CCN(CCc1nc(C(C)(C)O)c(C)o1)C(=O)c1ccccc1C1(C(F)F)CC1 [Example 18b, 2-(1-(difluoro-methyl)cyclopropyl)-N-ethyl-N-(2-(4-(2-hydroxypropan-2-yl)-5-methyloxazol-2-yl)ethyl)benzamide]
- IC50 (human orexin-2 receptor): 0.145 µM
- IC50 (human orexin-1 receptor): > 10 µM

- IC50 (human orexin-2 receptor): 0.012 µM
- IC50 (human orexin-1 receptor): 3.38 µM
SMILES: CCN(CCc1nc(C(C)(O)CC)c(C)o1)C(=O)c1ccccc1-n1nccn1 (stereo not shown) [Example 19, N-Ethyl-N-{2-[4-(1-hydroxy-1-methylpropyl)-5-methyl-1,3-oxazol-2-yl]ethyl}-2-(2H-1,2,3-triazol-2-yl)benzamide]

- IC50 (human orexin-2 receptor): 0.019 µM
- IC50 (human orexin-1 receptor): 2.67 µM
SMILES: CCN(CCc1nc(C(C)(O)C(C)C)c(C)o1)C(=O)c1ccccc1-n1nccn1 (stereo not shown) [Example 20, N-Ethyl-N-{2-[4-(1-hydroxy-1,2-dimethylpropyl)-5-methyl-1,3-oxazol-2-yl]ethyl}-2-(2H-1,2,3-triazol-2-yl)benzamide]
